Data taken from PubChem BioAssay (NCI).
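How tested: cells in 96-well plates exposed to compound for 48 hours at five concentrations. At the GI50, growth is halved. The concentration for full growth arrest is given as TGI.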

Columns and labels:
Experiment in all cases: DTP human tumour cell line panel, 48 h
[1] = system: PC-3 prostate
[2] = system: HOP-62 NSCLC
[3] = system: RXF 393 renal
[4] = system: EKVX NSCLC
[5] = system: K-562 leukemia
[6] = system: KM12 colon
[7] = system: IGROV1 ovarian
[8] = system: NCI-H522 lung
[9] = system: SW-620 colon
[10] = system: HCT-116 colon
[11] = system: HCT-15 colon
[12] = system: UO-31 renal
[13] = system: U251 CNS
[14] = system: RPMI-8226 leukemia
[15] = system: OVCAR-8 ovarian
[16] = system: NCI-H460 lung
[17] = system: LOX IMVI melanoma
[18] = system: M14 melanoma
[19] = system: HL-60(TB) leukemia
[20] = system: SK-OV-3 ovarian
[21] = system: SK-MEL-28 melanoma
[22] = system: SN12C renal
[23] = system: CAKI-1 renal
[24] = system: MDA-MB-435
[25] = system: SF-295 CNS
[26] = system: OVCAR-4 ovarian
[27] = system: DU-145 prostate
[28] = system: SNB-19 CNS
[29] = system: HS 578T breast
[30] = system: TK-10 renal
[31] = system: T-47D breast
[32] = system: OVCAR-5 ovarian
[33] = system: SR leukemia
[34] = system: SK-MEL-2 melanoma
[35] = system: SK-MEL-5 melanoma
[36] = system: SNB-75 CNS
[37] = system: MDA-MB-231 breast
[38] = system: UACC-257 melanoma
[39] = system: OVCAR-3 ovarian
[40] = system: A549 NSCLC
[41] = system: SF-539 CNS
[42] = system: UACC-62 melanoma
[43] = system: NCI-H226 lung
[44] = system: MOLT-4 leukemia
[45] = system: COLO 205 colon
[46] = system: ACHN renal
[47] = system: BT-549 breast
[48] = system: SF-268 CNS
[49] = system: 786-0 renal

Question: How did the GI50 [1] turn out when `C[C@@H]1O[C@@H](O[C@@H]2[C@@H](O)[C@H](OCCc3ccc(O)c(O)c3)O[C@H](CO)[C@H]2OC(=O)/C=C/c2ccc(O)c(O)c2)[C@H](O)[C@H](OC2OC[C@](O)(CO)[C@H]2O)[C@H]1O` (some centres not stated) was run?
Answer: Its GI50 is 7.41 µM.

Question: And the TGI [1]?
Answer: Its TGI is over 100 µM.

Question: What about the GI50 [2] of the same molecule?
Answer: Its GI50 is over 100 µM.

Question: And the TGI [2]?
Answer: Its TGI is over 100 µM.

Question: What about the GI50 [3] of the same molecule?
Answer: Its GI50 is 72 µM.

Question: And the TGI [3]?
Answer: Its TGI is over 100 µM.

Question: And the GI50 [4]?
Answer: Its GI50 is 63.9 µM.

Question: What about the TGI [4] of the same molecule?
Answer: Its TGI is over 100 µM.

Question: And the GI50 [5]?
Answer: The GI50 was 58.5 µM.

Question: And the TGI [5]?
Answer: The TGI was over 100 µM.

Question: And the GI50 [6]?
Answer: The GI50 was over 100 µM.

Question: And the TGI [6]?
Answer: The TGI was over 100 µM.

Question: And the GI50 [7]?
Answer: Its GI50 is over 100 µM.

Question: And the TGI [7]?
Answer: The TGI was over 100 µM.

Question: And the GI50 [8]?
Answer: Its GI50 is over 100 µM.

Question: And the TGI [8]?
Answer: Its TGI is over 100 µM.

Question: And the GI50 [9]?
Answer: Its GI50 is 22.7 µM.

Question: What about the TGI [9] of the same molecule?
Answer: The TGI was 52.8 µM.

Question: And the GI50 [10]?
Answer: Its GI50 is 30.4 µM.

Question: What about the TGI [10] of the same molecule?
Answer: The TGI was 65.4 µM.

Question: What about the GI50 [11] of the same molecule?
Answer: The GI50 was over 100 µM.

Question: And the TGI [11]?
Answer: Its TGI is over 100 µM.

Question: And the GI50 [12]?
Answer: Its GI50 is over 100 µM.

Question: And the TGI [12]?
Answer: Its TGI is over 100 µM.

Question: And the GI50 [13]?
Answer: Its GI50 is over 100 µM.

Question: What about the TGI [13] of the same molecule?
Answer: Its TGI is over 100 µM.

Question: What about the GI50 [14] of the same molecule?
Answer: The GI50 was 34.9 µM.

Question: What about the TGI [14] of the same molecule?
Answer: Its TGI is over 100 µM.

Question: What about the GI50 [15] of the same molecule?
Answer: The GI50 was 18.7 µM.

Question: What about the TGI [15] of the same molecule?
Answer: Its TGI is 40 µM.

Question: What about the GI50 [16] of the same molecule?
Answer: The GI50 was over 100 µM.

Question: And the TGI [16]?
Answer: Its TGI is over 100 µM.

Question: What about the GI50 [17] of the same molecule?
Answer: The GI50 was 19.4 µM.

Question: And the TGI [17]?
Answer: Its TGI is 37 µM.

Question: And the GI50 [18]?
Answer: Its GI50 is over 100 µM.

Question: And the TGI [18]?
Answer: Its TGI is over 100 µM.

Question: And the GI50 [19]?
Answer: The GI50 was over 100 µM.

Question: What about the TGI [19] of the same molecule?
Answer: The TGI was over 100 µM.

Question: What about the GI50 [20] of the same molecule?
Answer: The GI50 was over 100 µM.

Question: And the TGI [20]?
Answer: The TGI was over 100 µM.

Question: And the GI50 [21]?
Answer: The GI50 was over 100 µM.

Question: What about the TGI [21] of the same molecule?
Answer: The TGI was over 100 µM.

Question: And the GI50 [22]?
Answer: The GI50 was over 100 µM.

Question: And the TGI [22]?
Answer: The TGI was over 100 µM.

Question: What about the GI50 [23] of the same molecule?
Answer: The GI50 was 24.8 µM.

Question: What about the TGI [23] of the same molecule?
Answer: Its TGI is 42.5 µM.

Question: And the GI50 [24]?
Answer: Its GI50 is 17.5 µM.

Question: And the TGI [24]?
Answer: The TGI was 34.6 µM.

Question: And the GI50 [25]?
Answer: Its GI50 is over 100 µM.

Question: And the TGI [25]?
Answer: Its TGI is over 100 µM.

Question: And the GI50 [26]?
Answer: The GI50 was over 100 µM.

Question: What about the TGI [26] of the same molecule?
Answer: The TGI was over 100 µM.

Question: What about the GI50 [27] of the same molecule?
Answer: The GI50 was 16.9 µM.

Question: What about the TGI [27] of the same molecule?
Answer: Its TGI is 48 µM.

Question: What about the GI50 [28] of the same molecule?
Answer: The GI50 was over 100 µM.

Question: And the TGI [28]?
Answer: Its TGI is over 100 µM.

Question: And the GI50 [29]?
Answer: Its GI50 is over 100 µM.

Question: And the TGI [29]?
Answer: Its TGI is over 100 µM.

Question: What about the GI50 [30] of the same molecule?
Answer: The GI50 was over 100 µM.

Question: And the TGI [30]?
Answer: Its TGI is over 100 µM.

Question: What about the GI50 [31] of the same molecule?
Answer: The GI50 was over 100 µM.

Question: What about the TGI [31] of the same molecule?
Answer: The TGI was over 100 µM.

Question: And the GI50 [32]?
Answer: The GI50 was over 100 µM.

Question: And the TGI [32]?
Answer: Its TGI is over 100 µM.

Question: What about the GI50 [33] of the same molecule?
Answer: The GI50 was over 100 µM.

Question: And the TGI [33]?
Answer: The TGI was over 100 µM.

Question: What about the GI50 [34] of the same molecule?
Answer: The GI50 was 52.6 µM.

Question: What about the TGI [34] of the same molecule?
Answer: Its TGI is over 100 µM.

Question: And the GI50 [35]?
Answer: Its GI50 is over 100 µM.

Question: And the TGI [35]?
Answer: The TGI was over 100 µM.

Question: What about the GI50 [36] of the same molecule?
Answer: The GI50 was over 100 µM.

Question: And the TGI [36]?
Answer: The TGI was over 100 µM.

Question: What about the GI50 [37] of the same molecule?
Answer: Its GI50 is over 100 µM.

Question: What about the TGI [37] of the same molecule?
Answer: Its TGI is over 100 µM.

Question: And the GI50 [38]?
Answer: The GI50 was 27 µM.

Question: And the TGI [38]?
Answer: Its TGI is 90.1 µM.

Question: What about the GI50 [39] of the same molecule?
Answer: The GI50 was 35 µM.

Question: What about the TGI [39] of the same molecule?
Answer: Its TGI is over 100 µM.

Question: And the GI50 [40]?
Answer: The GI50 was over 100 µM.

Question: And the TGI [40]?
Answer: The TGI was over 100 µM.

Question: What about the GI50 [41] of the same molecule?
Answer: The GI50 was over 100 µM.

Question: And the TGI [41]?
Answer: The TGI was over 100 µM.

Question: What about the GI50 [42] of the same molecule?
Answer: Its GI50 is over 100 µM.

Question: And the TGI [42]?
Answer: Its TGI is over 100 µM.

Question: What about the GI50 [43] of the same molecule?
Answer: The GI50 was over 100 µM.

Question: And the TGI [43]?
Answer: Its TGI is over 100 µM.

Question: What about the GI50 [44] of the same molecule?
Answer: The GI50 was over 100 µM.

Question: And the TGI [44]?
Answer: The TGI was over 100 µM.

Question: And the GI50 [45]?
Answer: The GI50 was over 100 µM.

Question: What about the TGI [45] of the same molecule?
Answer: The TGI was over 100 µM.

Question: And the GI50 [46]?
Answer: The GI50 was over 100 µM.

Question: What about the TGI [46] of the same molecule?
Answer: The TGI was over 100 µM.

Question: And the GI50 [47]?
Answer: Its GI50 is 12 µM.

Question: What about the TGI [47] of the same molecule?
Answer: Its TGI is 27.2 µM.

Question: And the TGI [48]?
Answer: Its TGI is 53.4 µM.

Question: And the GI50 [49]?
Answer: Its GI50 is 84.7 µM.

Question: What about the TGI [49] of the same molecule?
Answer: Its TGI is over 100 µM.
